In patent US8273730B2, “Use of estriol in low doses” (Italfarmaco, SA, priority 2007, dated 2012):

Test system: vaginal atrophy in female ovariectomized Wistar Han rats
Test: Assay I: assessment of the effect on vaginal atrophy (vaginal smears: cornified cells, maturation index, overall trophism)
Format: in vivo, rat
Details: dose 10 times less than the usual dose; rats of both groups (cream and gel)
Procedure: In this study a total of 8 female ovariectomized Wistar Han rats were used, which were randomly distributed into 2 groups with 4 animals each. Group A was treated with Formulation 1 whereas Group B was treated with Formulation 2.
After 18 days had elapsed from the reception of the ovariectomized animals, several vaginal smears were periodically performed in each rat, until the menopausal condition (particularly vaginal atrophy) was verified in all the rats, determining the maturation index of the vaginal epithelium.
Once the treatment had started, Formulations 1 (0.005% estriol cream) and 2 (0.005% estriol gel) were administered to experimental Group A and B, respectively, once a day for 5 days. The administration was carried out by vaginal route, in an amount of 5.8 mg of formulation/animal (corresponding to 0.29 μg of estriol/animal), using a positive displacement multipipette equipped with a special tip. […]
The effect of the treatment with each of the formulations was assessed by means of the appearance of cornified cells, the determination of the maturation index of the vaginal epithelium and the evaluation of the overall trophism.

Q: With `C[C@]12CC[C@@H]3c4ccc(O)cc4CC[C@H]3[C@@H]1C[C@@H](O)[C@@H]2O` [estriol] as the compound, how does the “Effect on vaginal atrophy condition” value read?
A: reverses the vaginal atrophy condition
